Assay results taken from patent publication US9249102B2 (priority 2012, dated 2016).

Test system: Haemonchus contortus
Test: Method A: Haemonchus contortus L1 larvae, microtitre plate screen
Settings: 96 h, read-out: motility inhibition

| Compound | inhibition at 5 µg/mL |
| --- | --- |
| C[C@@H]([C@@H]1Cc2cc(F)ccc2O1)N1CCN(C(=O)COC2CCC(Nc3ccc([N+](=O)[O-])c(C(F)(F)F)c3)CC2)CC1 (relative stereo) [Compound 260-10, 1-(4-((S)-1-((S)-5-fluoro-2,3-dihydrobenzofuran-2-yl)ethyl)piperazin-1-yl)-2-(4-(4-nitro-3-(trifluoromethyl)phenylamino)cyclohexyloxy)ethanone] | ≥ 90% |
| CC(CN1CCN(c2ccc3cc(F)ccc3c2)CC1)C(=O)N1CCC(Nc2ccc([N+](=O)[O-])c(C(F)(F)F)c2)CC1 (stereo not shown) [Compound 16, 3-[4-(6-fluoronaphthalen-2-yl)piperazin-1-yl]-2-methyl-1-(4-[[4-nitro-3-(trifluoromethyl)phenyl]amino]piperi-din-1-yl)propan-1-one] | ≥ 90% |
| O=C(COc1ccc(Nc2ccc([N+](=O)[O-])c(C(F)(F)F)c2)cc1)N1CCN(CC2Cc3cc(Cl)ccc3O2)CC1 (stereo not shown) [Compound 68, 1-[4-[(5-chloro-2,3-dihydro-1-benzofuran-2-yl)methyl]piperazin-1-yl]-2-(4-[[4-nitro-3-(trifluoromethyl)phenyl]amino]phenoxy)ethan-1-one] | ≥ 90% |
| O=C(NCCO[C@H]1CC[C@H](Nc2ccc([N+](=O)[O-])c(C(F)(F)F)c2)CC1)C(=O)Nc1ccc2ccccc2c1 [Compound 75, N-(naphthalen-2-yl)-N-[2-[(4-[[4-nitro-3-(trifluoromethyl)phenyl]amino]cyclohexyl)oxy]ethyl]ethanediamide] | ≥ 90% |
| N#Cc1ccc(N[C@H]2CC[C@H](OCC(=O)N3CCN(C(=O)C4Cc5cc(Cl)ccc5O4)CC3)CC2)cc1C(F)(F)F (stereo partly shown) [Compound 85, 4-(4-{2-[4-(5-chloro-2,3-dihydro-benzofuran-2-carbonyl)-piperazin-1-yl]-2-oxo-ethoxy}-cyclohexylamino)-2-trifluoromethyl-benzonitrile] | ≥ 90% |
| N#Cc1ccc(N[C@H]2CC[C@H](OCC(=O)N3CCN(C(=O)C4Cc5cc(F)ccc5O4)CC3)CC2)cc1C(F)(F)F (stereo partly shown) [Compound 86, 4-(4-{2-[4-(5-fluoro-2,3-dihydro-benzofuran-2-carbonyl)-piperazin-1-yl]-2-oxo-ethoxy}-cyclohexylamino)-2-trifluoromethyl-benzonitrile] | ≥ 90% |
| CC(CN1CCN(c2ccc3ccccc3n2)CC1)C(=O)N1CCC(Nc2ccc([N+](=O)[O-])c(C(F)(F)F)c2)CC1 (stereo not shown) [Compound 91, 2-methyl-1-(4-[[4-nitro-3-(trifluoromethyl)phenyl]amino]piperidin-1-yl)-3-[4-(quinolin-2-yl)piperazin-1-yl]propan-1-one] | ≥ 90% |
| O=C(COc1ccc2ccc([N+](=O)[O-])c(C(F)(F)F)c2c1)N1CCN(c2ccc3cc(C(F)(F)F)ccc3n2)CC1 [Compound 131, 2-[[7-nitro-8-(trifluoromethyl)naphthalen-2-yl]oxy]-1-[4-[6-(trifluoromethyl)quinolin-2-yl]piperazin-1-yl]ethan-1-one] | ≥ 90% |
| O=C(NCCO[C@H]1CC[C@H](Nc2ccc([N+](=O)[O-])c(C(F)(F)F)c2)CC1)C(=O)Nc1ccc2cc(C(F)(F)F)ccc2c1 [Compound 173] | ≥ 90% |
| O=C(NCCO[C@H]1CC[C@H](Nc2ccc([N+](=O)[O-])c(C(F)(F)F)c2)CC1)C(=O)Nc1ccc2cc(Cl)ccc2c1 [Compound 174] | ≥ 90% |
| O=C(COc1ccc(Nc2ccc([N+](=O)[O-])c(C(F)(F)F)c2)cc1)N1CCN(C(=O)c2cc3cc(C(F)(F)F)ccc3o2)CC1 [Compound 191, 2-(4-[[4-nitro-3-(trifluoromethyl)phenyl]amino]phenoxy)-1-(4-[[5-(trifluoromethyl)-1-benzofuran-2-yl]carbonyl]piperazin-1-yl)ethan-1-one] | ≥ 90% |
| O=C(NCCO[C@H]1CC[C@H](Nc2ccc([N+](=O)[O-])c(C(F)(F)F)c2)CC1)C(=O)Nc1ccc2ccccc2n1 [Compound 238, N^1-(2-(-4-(4-nitro-3-(trifluoromethyl)phenylamino)cyclohexyloxy)ethyl)-N^2-(quinolin-2-yl)oxalamide] | ≥ 90% |
| O=C(NCCO[C@H]1CC[C@H](Nc2ccc([N+](=O)[O-])c(C(F)(F)F)c2)CC1)C(=O)Nc1ccc2cc(F)ccc2n1 [Compound 239, N^1-(6-fluoroquinolin-2-yl)-N^2-(2-(-4-(4-nitro-3-(trifluoromethyl)phenylamino)cyclohexyloxy)ethyl)oxalamide] | ≥ 90% |
| O=C(NCCO[C@H]1CC[C@H](Nc2ccc([N+](=O)[O-])c(C(F)(F)F)c2)CC1)C(=O)Nc1ccc2cc(C(F)(F)F)ccc2n1 [Compound 240, N^1-(2-(-4-(4-nitro-3-(trifluoromethyl)phenylamino)cyclohexyloxy)ethyl)-N^2-(6-(trifluoromethyl)quinolin-2-yl)oxalamide] | ≥ 90% |
| O=C(NCCO[C@H]1CC[C@H](Nc2ccc([N+](=O)[O-])c(C(F)(F)F)c2)CC1)C(=O)Nc1ccc2cc(Cl)ccc2n1 [Compound 241, N^1-(6-chloroquinolin-2-yl)-N^2-(2-(-4-(4-nitro-3-(trifluoromethyl)phenylamino)cyclohexyloxy)ethyl)oxalamide] | ≥ 90% |
| O=[N+]([O-])c1ccc(N[C@H]2CC[C@H](OCC(=S)N3CCN(c4ccc5cc(F)ccc5n4)CC3)CC2)cc1C(F)(F)F [Compound 264, 1-[4-(6-fluoro-quinolin-2-yl)-piperazin-1-yl]-2-[4-(4-nitro-3-trifluoro-methyl-phenylamino)-cyclohexyloxy]-ethanethione] | ≥ 90% |
| O=C(CO[C@H]1CC[C@H](Nc2ccc([N+](=O)[O-])c(C(F)(F)F)c2)CC1)N1CCN(c2ccc3cc(Br)ccc3c2F)CC1 [Compound 267, 1-[4-(6-bromo-1-fluoro-naphthalen-2-yl)-piperazin-1-yl]-2-[4-(4-nitro-3-trifluoromethyl-phenylamino)-cyclohexyloxy]-ethanone] | ≥ 90% |
| O=C(CO[C@H]1CC[C@H](Nc2ccc([N+](=O)[O-])c(C(F)(F)F)c2)CC1)N1CCN(c2ccc3cc(Br)ccc3c2)CC1 [Compound 268, 1-[4-(6-bromo-naphthalen-2-yl)-piperazin-1-yl]-2-[4-(4-nitro-3-trifluoromethyl-phenylamino)-cyclohexyloxy]-ethanone] | ≥ 90% |
| CN(c1ccc(C#N)c(C(F)(F)F)c1)[C@H]1CC[C@H](OCC(=O)N2CCN(CC3Cc4cc(F)ccc4O3)CC2)CC1 (stereo partly shown) [Compound 280, 4-[(4-{2-[4-(5-fluoro-2,3-dihydro-benzofuran-2-ylmethyl)-piperazin-1-yl]-2-oxo-ethoxy}-cyclohexyl)-methyl-amino]-2-trifluoromethyl-benzonitrile] | ≥ 90% |
| N#Cc1ccc(N[C@H]2CC[C@H](OCC(=O)N3CCN(Cc4nc5cc(Cl)ccc5o4)CC3)CC2)cc1C(F)(F)F [Compound 288, 2-[(4-[[4-cyano-3-(trifluoromethyl)phenyl]amino]cyclohexyl)-oxy]1-[4-(5-chlorobenzoxazol-2-ylmethyl)piperazin-1-yl]ethan-1-one] | ≥ 90% |
| CN(c1ccc(C#N)c(C(F)(F)F)c1)[C@H]1CC[C@H](OCC(=O)N2CCN(c3ccc4cc(F)ccc4c3)CC2)CC1 [Compound 293, 4-[(4-{2-[4-(6-fluoro-naphthalen-2-yl)-piperazin-1-yl]-2-oxo-ethoxy}-cyclohexyl)-methyl-amino]-2-trifluoromethyl-benzonitrile] | ≥ 90% |
| O=C(COC1CCC(Oc2ccc([N+](=O)[O-])c(C(F)(F)F)c2)CC1)N1CCN(Cc2nc3cc(C(F)(F)F)ccc3s2)CC1 (stereo not shown) [Compound 311, 2-[4-(4-nitro-3-trifluoromethyl-phenoxy)-cyclohexyloxy]-1-[4-(5-trifluoromethyl-benzothiazol-2-ylmethyl)-piperazin-1-yl]-ethanone] | ≥ 90% |
| O=C(CO[C@H]1CC[C@H](Nc2ccc([N+](=O)[O-])c(C(F)(F)F)c2)CC1)N1CCN(Cc2oc3ccc(F)cc3c2Cl)CC1 [Compound 312, 1-[4-(3-chloro-5-fluoro-benzofuran-2-ylmethyl)-piperazin-1-yl]-2-[4-(4-nitro-3-trifluoromethyl-phenylamino)-cyclohexyloxy]-ethanone] | ≥ 90% |
| N#Cc1ccc(N[C@H]2CC[C@H](OCC(=O)N3CCN(Cc4oc5ccc(F)cc5c4Cl)CC3)CC2)cc1C(F)(F)F [Compound 313, 4-(4-{2-[4-(3-chloro-5-fluoro-benzofuran-2-ylmethyl)-piperazin-1-yl]-2-oxo-ethoxy}-cyclohexylamino)-2-trifluoromethyl-benzonitrile] | ≥ 90% |
| N#Cc1ccc(N[C@H]2CC[C@H](OCC(=O)N3CCN(Cc4oc5ccc(Cl)cc5c4Cl)CC3)CC2)cc1C(F)(F)F [Compound 315, 4-(4-{2-[4-(3,5-dichloro-benzofuran-2-ylmethyl)-piperazin-1-yl]-2-oxo-ethoxy}-cyclohexylamino)-2-trifluoromethyl-benzonitrile] | ≥ 90% |
| O=C(CO[C@H]1CC[C@H](Nc2ccc([N+](=O)[O-])c(C(F)(F)F)c2)CC1)N1CCN(Cc2oc3ccc(Cl)cc3c2Cl)CC1 [Compound 316, 1-[4-(3,5-dichloro-benzofuran-2-ylmethyl)-piperazin-1-yl]-2-[4-(4-nitro-3-trifluoromethyl-phenylamino)-cyclohexyloxy]-ethanone] | ≥ 90% |
| O=C(CO[C@H]1CC[C@H](Nc2ccc([N+](=O)[O-])c(C(F)(F)F)c2)CC1)N1CCN(Cc2cc3c(Cl)cc(Cl)cc3o2)CC1 [Compound 318, 2-[(4-[[4-nitro-3-(trifluoromethyl)phenyl]amino]cyclohexyl)-oxy]1-[4-(4,6-dichlorobenzofuran-2-ylmethyl)piperazin-1-yl]ethan-1-one] | ≥ 90% |
| O=C(CO[C@H]1CC[C@H](Nc2ccc([N+](=O)[O-])c(C(F)(F)F)c2)CC1)N1CCN(Cc2cc3cc(Cl)cc(Cl)c3o2)CC1 [Compound 319, 2-[(4-[[4-nitro-3-(trifluoromethyl)phenyl]amino]cyclohexyl)-oxy]1-[4-(5,7-dichlorobenzofuran-2-ylmethyl)piperazin-1-yl]ethan-1-one] | ≥ 90% |
